# According to article PMC8839256, “Concept of Fluorescent Transport Activity Biosensor for the Characterization of the Arabidopsis NPF1.3 Activity of Nitrate” (Sensors (Basel, Switzerland), 2022):
# Biological target: T1, NPF1.3 (Arabidopsis thaliana, UniProt Q9LYD5)
# T1 construct: full-length cDNA in pOO2-GW; cRNA expressed in Xenopus laevis oocytes
# T1 sequence (Q9LYD5 1-481): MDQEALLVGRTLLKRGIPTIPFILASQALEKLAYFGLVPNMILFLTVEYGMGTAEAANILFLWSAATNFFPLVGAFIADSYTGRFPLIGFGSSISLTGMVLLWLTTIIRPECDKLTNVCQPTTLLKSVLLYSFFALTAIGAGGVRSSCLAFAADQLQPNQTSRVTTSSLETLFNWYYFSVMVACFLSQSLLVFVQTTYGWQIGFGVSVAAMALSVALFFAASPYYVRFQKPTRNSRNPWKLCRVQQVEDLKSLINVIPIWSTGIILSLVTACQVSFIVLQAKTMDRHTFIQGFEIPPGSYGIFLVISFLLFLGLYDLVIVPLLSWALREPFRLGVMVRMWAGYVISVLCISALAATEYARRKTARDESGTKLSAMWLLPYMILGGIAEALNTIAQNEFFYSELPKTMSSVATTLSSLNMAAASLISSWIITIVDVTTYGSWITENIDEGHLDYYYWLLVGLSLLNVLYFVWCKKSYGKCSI
# Experiment: two-electrode voltage clamp, inward current in Xenopus oocytes
# Format: cell-based
# Settings: 5 mM CsNO3 (Figure 5 legend, methods; text says KNO3); -120 mV
compound,measurement,value
O=[N+]([O-])O [nitrate],"two-electrode voltage clamp, inward current in Xenopus oocytes",the nitrate-dependent inward currents were observed by KNO3 in NPF1.3-injected oocytes
